Source: the supplement of paper PMC9763283

Key:
Test in all cases: area under growth-rate inhibition curve (AUC GRI) (dimensionless (GR-based AUC)); higher = less growth inhibition
Settings in all cases: exposure time: 72 h; concentrations: 0.1, 1, 10 uM
SKBR3-P = tested on: SKBR3-P
Summary of the method: (§1)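 Nuclear counts from Hoechst 33342- or DAPI-stained images were used to estimate the area under the growth-rate inhibition curve, with growth corrected by reference to untreated and DMSO-treated plates and starting plates. The six breast cancer cell line models, comprising two triple-negative lines and parental and drug-combination-resistant HER2+ lines, were treated with compound at 0.1, 1 or 10 µM for 72 h. Data came from 2 biological replicates, using Day 0 and Day 3 plates.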

MDA-MB-468 = tested on: MDA-MB-468
Summary of the method: as §1

BT474-LTR = tested on: BT474-LTR
Summary of the method: as §1

MDA-MB-231 = tested on: MDA-MB-231
Summary of the method: as §1

SKBR3-LTR = tested on: SKBR3-LTR
Summary of the method: as §1

BT474-P = tested on: BT474-P
Summary of the method: as §1

Row | Compound | area under growth-rate inhibition curve (SKBR3-P) | area under growth-rate inhibition curve (MDA-MB-468) | area under growth-rate inhibition curve (BT474-LTR) | area under growth-rate inhibition curve (MDA-MB-231) | area under growth-rate inhibition curve (SKBR3-LTR) | area under growth-rate inhibition curve (BT474-P)
1 | C#C[C@]1(O)C=C[C@H]2[C@@H]3CCC4=CC(=O)CC[C@@H]4[C@H]3CC[C@@]21CC [Gestodene] | 1.01 | 1.03 | 1.04 | 1.03 | 1.12 | 0.981
2 | Cl.c1ccc2c(CC3=NCCN3)cccc2c1 [Naphazoline HCl] | 1.02 | 1.03 | 1.11 | 1.05 | 1.07 | 1.04
3 | [Cl-].[H+].c1ccc2c(c1)CCCC2C1=NCCN1 (stereo unspecified) [Tetrahydrozoline HCl] | 1.02 | 1.03 | 1.07 | 1.01 | 1.02 | 1.03
4 | Cl.Cl.NCCc1cnc[nH]1 [Histamine 2HCl] | 1.01 | 1.02 | 1.11 | 1.02 | 1.05 | 1.05
5 | CCCN(CCC)CCc1cccc2c1CC(=O)N2 [Ropinirole] | 1.02 | 1.06 | 1.05 | 1.03 | 1.05 | 0.994
6 | O=C(O)c1ccc2ccccc2c1O.OCc1cc(C(O)CNCCCCCCOCCCCc2ccccc2)ccc1O (stereo unspecified) [Salmeterol Xinafoate] | 0.95 | 0.875 | 0.877 | 0.832 | 0.993 | 0.905
7 | Cc1cc(C(C)(C)C)c(O)c(C)c1CC1=NCCN1.[Cl-].[H+] [Oxymetazoline hydrochloride] | 1.02 | 1.04 | 1.09 | 1.01 | 1.06 | 1.05
8 | Cc1c(C(=O)Nc2ccc(N3CC(C)OC(C)C3)nc2)cccc1-c1ccc(OC(F)(F)F)cc1 (stereo unspecified) [LDE225 (NVP-LDE225,Erismodegib)] | 0.981 | 0.915 | 1.04 | 0.921 | 1.03 | 0.909
9 | CNCC(O)c1ccc(O)cc1.Cl (stereo unspecified) [Synephrine HCl] | 1.01 | 1.05 | 1.11 | 0.993 | 1.07 | 1.05
10 | COc1ccccc1N1CCN(CCCNc2cc(=O)n(C)c(=O)n2C)CC1.[Cl-].[H+] [Urapidil HCl] | 1.04 | 1.04 | 1.1 | 1.02 | 1.09 | 1.03
11 | CNC[C@H](O)c1cccc(O)c1.Cl [Phenylephrine HCl] | 0.985 | 1.03 | 1.09 | 0.996 | 1.02 | 1.01
12 | CC(C)C(=O)OCC(=O)[C@@]12O[C@H](C3CCCCC3)O[C@@H]1C[C@H]1[C@@H]3CCC4=CC(=O)C=C[C@]4(C)[C@H]3[C@@H](O)C[C@@]12C [Ciclesonide] | 0.955 | 1.03 | 0.999 | 0.996 | 1.05 | 0.947
13 | CNCC[C@@H](Oc1ccccc1C)c1ccccc1.Cl [Atomoxetine HCl] | 1.01 | 1.01 | 1.09 | 1.02 | 1.05 | 1.04
14 | CNC[C@H](O)c1ccc(O)c(O)c1.O=C(O)[C@H](O)[C@@H](O)C(=O)O [Epinephrine Bitartrate] | 1.01 | 1.02 | 1.06 | 0.946 | 1.1 | 1.03
15 | CCOC(=O)c1cncn1C(C)c1ccccc1 (stereo unspecified) [Etomidate] | 0.999 | 1.03 | 1.09 | 1.05 | 1.07 | 1.08
16 | Cc1cccc(C)c1NC1=NCCCS1.[Cl-].[H+] [Xylazine HCl] | 1.01 | 1.04 | 1.12 | 1.02 | 1.07 | 1.04
17 | OC[C@H](O)CN1CCN(c2ccccc2)CC1 [Levodropropizine] | 1.02 | 1.03 | 0.995 | 0.999 | 0.975 | 1.01
18 | CCc1c(C)[nH]c2c1C(=O)C(CN1CCOCC1)CC2 (stereo unspecified) [molindone] | 1.03 | 1.06 | 1.04 | 1.05 | 1.05 | 1.01
19 | COCCCC/C(=N\OCCN)c1ccc(C(F)(F)F)cc1.O=C(O)/C=C\C(=O)O [Fluvoxamine maleate] | 1.02 | 1.03 | 1.1 | 1.01 | 1.05 | 1.04
20 | COc1cc2nc(N3CCN(C(=O)C4CCCO4)CC3)nc(N)c2cc1OC.O.[Cl-].[H+] (stereo unspecified) [Terazosin HCl] | 1.03 | 1.04 | 1.09 | 1.02 | 1.1 | 1.02
21 | COc1ccc(CN(CCN(C)C)c2ccccn2)cc1.O=C(O)/C=C\C(=O)O [Mepyramine maleate] | 1.05 | 1.05 | 1.06 | 1.05 | 1.05 | 1.03

Row | Compound | area under growth-rate inhibition curve (SKBR3-P) | area under growth-rate inhibition curve (MDA-MB-468) | area under growth-rate inhibition curve (BT474-LTR) | area under growth-rate inhibition curve (MDA-MB-231) | area under growth-rate inhibition curve (SKBR3-LTR) | area under growth-rate inhibition curve (BT474-P)
22 | CC(C)NCC(O)COc1cccc2ccccc12.[Cl-].[H+] (stereo unspecified) [Propranolol HCl] | 1.01 | 1.03 | 1.1 | 1.04 | 1.06 | 1.11
23 | CN(C)C(=O)N[C@H]1CC[C@H](CCN2CCN(c3cccc(Cl)c3Cl)CC2)CC1 [Cariprazine] | 1.01 | 1.02 | 1.04 | 1.02 | 1.05 | 1.02
24 | Cl.NCc1cnc(S)n1C1CCc2c(F)cc(F)cc2C1 (stereo not drawn) [Nepicastat (SYN-117) HCl] | 1.02 | 1 | 1.08 | 1.01 | 1.07 | 1.03
25 | CN(C)CC/C=C1/c2ccccc2Sc2ccc(Cl)cc21 [Chlorprothixene] | 0.97 | 0.931 | 1.01 | 1.02 | 1.03 | 0.997
26 | O=C(c1ccc(F)cc1)N1CCC[C@H](c2nc(-c3ccc(F)cc3)no2)C1 | 1.01 | 1.04 | 1.07 | 1.01 | 1.11 | 1.02
27 | OC(CNCC(O)C1CCc2cc(F)ccc2O1)C1CCc2cc(F)ccc2O1.[Cl-].[H+] (stereo unspecified) [Nebivolol] | 0.938 | 0.805 | 0.88 | 0.874 | 0.853 | 0.882
28 | C[N+](C)(C)CCCCCCCCCC[N+](C)(C)C.[Br-].[Br-] [Decamethonium Bromide] | 1.03 | 1.03 | 1.1 | 1.04 | 1.04 | 1.06
29 | NCC1(CC(=O)O)CCCCC1 [Gabapentin] | 1.03 | 1.04 | 1.04 | 1.04 | 1.08 | 1
30 | COc1ccc(C[C@@H]2c3cc(OC)c(OC)cc3CC[N@+]2(C)CCC(=O)OCCCCCOC(=O)CC[N@@+]2(C)CCc3cc(OC)c(OC)cc3[C@H]2Cc2ccc(OC)c(OC)c2)cc1OC.O=S(=O)([O-])c1ccccc1.O=S(=O)([O-])c1ccccc1 [Cisatracurium Besylate] | 0.961 | 0.988 | 1.01 | 0.997 | 1.01 | 0.998
31 | COC(c1ccccc1)(c1ccccc1)C(Oc1nc(C)cc(C)n1)C(=O)O (stereo unspecified) [Ambrisentan] | 1.03 | 1.04 | 1.05 | 1.05 | 1.06 | 1.01
32 | CCN1CCCC1CNC(=O)c1cc(S(N)(=O)=O)ccc1OC (stereo unspecified) [Levosulpiride] | 1.01 | 1.03 | 1.06 | 1.01 | 1.05 | 1.02
33 | COc1cc2nc(N3CCN(C(=O)C4CCCO4)CC3)nc(N)c2cc1OC.[Cl-].[H+] (stereo unspecified) [Terazosin] | 1.03 | 0.998 | 1.07 | 0.999 | 1.01 | 1.02
34 | CCCSc1nc(NC2CC2c2ccc(F)c(F)c2)c2nnn(C3CC(OCCO)C(O)C3O)c2n1 (stereo unspecified) [Ticagrelor] | 0.995 | 0.975 | 0.984 | 0.975 | 0.968 | 0.922
35 | Clc1ccc2c(c1)CCc1cccnc1C2=C1CCNCC1 [Desloratadine] | 0.998 | 0.988 | 1.07 | 1 | 1.03 | 0.984
36 | CCN(CC)CCNC(=O)c1cc(Cl)c(N)cc1OC.Cl [MetoclopraMide HCl] | 1.02 | 1.01 | 1.09 | 1.05 | 1.04 | 1.04
37 | NCCCCCNCC12CC3CC(CC(C3)C1)C2.[Br-].[Br-].[H+].[H+] [IEM 1754 dihydrobroMide] | 1.03 | 1.03 | 1.07 | 1.04 | 1.04 | 1.01
38 | O=C(O)COCCN1CCN(C(c2ccccc2)c2ccc(Cl)cc2)CC1.[Cl-].[Cl-].[H+].[H+] (stereo unspecified) [Cetirizine DiHCl] | 0.997 | 1 | 1.07 | 1.02 | 1.03 | 1.03
39 | CCN(CC)CCCCN1c2ccccc2Oc2ccc(Cl)cc21.Cl [10-DEBC hydrochlorid] | 1.04 | 1.06 | 0.995 | 1.04 | 1.05 | 1.04
40 | Cc1ccc(OCC(O)C(C)NC(C)C)c2c1CCC2.[Cl-].[H+] (stereo unspecified) | 1.01 | 1.05 | 1.11 | 1.06 | 1.07 | 1.04
41 | O=C(CCCN1CC=C(n2c(=O)[nH]c3ccccc32)CC1)c1ccc(F)cc1 [Droperidol] | 1.02 | 0.992 | 1.04 | 1.02 | 1.07 | 1.03
